According to patent publication US5254572A, “Method and composition for supplementing vitamin B6 where the PN-PLP pathway is disturbed” (priority 1989, dated 1993):
“And” between values parts separate entries of the source, which are not always exact repeats. Identical values can stand only once. “Also recorded” adds a separate entry of the source.

Experiments:
fibroblast cell cultures = assay: Example 27: cellular uptake in fibroblast cell cultures, intracellular PLP content; assay type: cell-based
Experimental: Fibroblast cell cultures were cultivated in the usual manner in a medium containing different concentrations of various B6 vitamers, and the intracellular […] content was determined.
When the extracellular PL concentration was 60 nM, intracellular PLP levels reached a concentration of 12 nmol/g cell protein. […] Moreover, when both PN and PL were included in the medium, intracellular PLP accumulation was decreased in comparison with PLP accumulation seen when PL alone (in equimolecular concentrations)was included in the medium.

[1] = test system: PNP-oxidase in bone marrow aspirate; assay: Conversion of pyridoxine by bone marrow aspirate (PNP-oxidase activity); assay type: cell-based; settings: immature cells
Experimental: To confirm the inability of immature cells to convert pyridoxine into pyridoxal and its phosphate, an aspirate of bone marrow was tested.

[2] = test system: anemia / haemoglobin formation; settings: 50-200 mg PN/day, one case 600 mg/day; Merrill and Henderson; cited from earlier work
[3] = test system: estrogen side effects (tryptophane metabolism); settings: cited from earlier work
[4] = test system: glutamate-pyruvate-transaminase (GPT); assay: RBC GPT-activity before and after daily oral PN supplementation; assay type: in vivo, human; settings: RBC GPT-activity at day 0 and day 28, daily oral PN (10 mg)
Source text: The enzyme glutamate-pyruvate-transaminase (GPT) is a PLP dependent enzyme present in RBC which can be used to assess the utilisation of PN by RBC. In the population, individuals may be divided into 3 different groups corresponding to 3 polymorphic forms of the enzyme (1-1, 25%; 1-2, 50%; 2-2, 25%.

[5] = test system: estrogen side effects (tryptophane metabolism); assay: Counteracting side effects of elevated estrogen (PMS, OC users); assay type: in vivo, patients
[6] = man; cited from earlier work
lipid metabolism = settings: experimental animals; German patent application P37 05 549.6; cited from earlier work
[7] = Plasma PLP increment in critically ill patients on hyperalimentation and additional PN / alleviation of B6 depletion; assay type: in vivo
Source text: A direct inverse correlation exists between the degree of B6 depletion of critically ill patients and their chances of survival. Medical and surgical complication such as shock, hepatic failure, infection and sepsis, wound dehiscence, incisional hernia, aminoglycoside induced renal failure and impaired skin and mucosal regeneration, hematopoiesis, hormone production and wound repair; multi-organ dysfunction, respiratory distress and also severe depression are substantially more frequent in B6 deficient patients. These conditions are, inter alia, causally related to impairment of immune function, collagen and elastin cross-linking and polyamine synthesis and accumulation. […] However, the correctness or otherwise of any explanations given or mechanisms postulated is not to limit the scope of the invention or to be relevant to the inventive merits of the invention as claimed.

PN-oxidase deficiency = assay: Response of patients with reduced PN-oxidase activity; assay type: in vivo
[8] = test system: PLP-phosphatases in red blood cells; assay: Inhibition of PLP-specific phosphatases of red blood cells; assay type: biochemical
[9] = experimental animals or humans; cited from earlier work
[10] = test system: E. Coli induced septic shock; assay: Protective effect in experimentally induced septic shock; assay type: in vivo, rats
Experimental: An E. Coli suspension was prepared and serially diluted to the point where an injection of 0.3 ml caused approximately 80% mortality in rats after 12 h. This solution was used as the challenging solution in the following experiment:
Two groups of 6 male rats each were used. The animals were carefully selected so that the average mass in both groups was 210 g (191-219 g in the control group; 194-224 g in the experimental group). A solution containing 43.8 mg/ml of pyridoxal was prepared for i/v and i/p injection. 0.8 ml of this solution afforded 1.0 m mol/kg of PL when injected into a 210 g rat.
At time 0 h, the control group received 0.3 ml saline and the experimental group 0.3 ml of the PL solution. After 1 h all animals in both groups were challenged with 0.3 ml i/v of the E. Coli suspension. Immediately thereafter, the control group received 0.5 ml saline and the experimental group 0.5 ml of the PL solution i/p.
Each entry represents 1 animal, 12 h denoting that the particular animal survived for the full observation period of 12 h. Other entries denote mortalities at the times indicated, e.g. 2 h inspection (all animals were inspected at 1 h intervals and mortalities counted).

Babesia canis [11] = assay: Example 4: further clinical trials on dogs with B-canis infection; assay type: in vivo
Source text: The experiment was repeated with 13 dogs (10 inbred beagles and 3 other mongrels) randomly divided into an experimental and a control group. All animals were infected with Babesia canis by injection of blood from a splenectomised donor dog which led to the development of acute Babesiosis in approximately 3-5 days. All dogs were monitored twice daily until the haematocrit values fell to 0.15 l/l when treatment was started which in the case of all animals consisted of the following:
Electrolytes solution (number 2) for the first […], thereafter Post-Surgisol. Both fluids were administered by means of an intravenous jugular catheter at a rate of 80 ml/kg/24h.
Trypan blue (1%) 1 ml/kg intravenous once only. Berenil 3.5 mg/kg intramuscularly 7 days after the Trypan blue. Heparin, 25 IU/kg subcutaneously three times per day for the first 2 days.
Experimental animals, in addition, received pyridoxal in their infusions at a concentration of 50 mg/l for the entire duration of fluid therapy.
Before the start of treatment, a urine dipstick and sediment examination were performed as well as a complete clinical evaluation and faecal flotation to determine the presence of helminth ova.
Assessment: Temperature pulse and respiration were measured every 6 hours during the first 3 days and a subjective assessment of habitus (grade 1-4) and appetite (1-4) was also made at the same time.
Full haematological and biochemical assessment was performed daily.
Serum alkaline phosphatase determinations were made on days 1 and 3.
Additional trial parameters and measurements consisted of Astrup determinations (before treatment and again 24 hours later) and a ten day survival rate.
Samples for haematology were drawn in evacuated EDTA tubes and for serum chemistries into plain evacuated tubes (cephalic vein).
Plasma PLP and PL as well as RBC-PLP and PL values were determined by means of a HPLC procedure routinely used for human studies.

[12] = compared with PN; cited from earlier work
Babesia canis [13] = assay: Example 4: clinical trials on dogs with B. canis infection; assay type: in vivo
Experimental: Babesia canis infection, better known as "biliary fever", is a severe and frequently fatal disease in dogs. It is a protozoal disease involving large-scale destruction of erythrocytes (red blood cells) and loss of haemoglobin. Double blind trials were carried out on two groups of dogs presented to the clinic for treatment of severe B. canis infections. Upon admission, all animals were recumbent with fever, jaundice, and accelerated heart and respiratory rate. All animals were given standard treatment, which consisted of post surgical drip, doxycycline, trypan blue, hepavet, electrolytes and glucose. In the experimental group, a solution of PL was added to the drip (electrolytes, glucose) given to the animals. In the control group, saline was given to replace the PL solution.
The PL solution according to the invention was made up as follows (per vial):
Experimental animals: PL solution according to the invention was given with the drip in such a manner that each patient received 50mg of pyridoxal over a 12 h period. Each animal received only one such course of treatment.
These received saline instead of PL solution under similar conditions. Control animals were selected to resemble experimental animals as closely as possible in respect of race and initial haemoglobin concentration.
**E: denotes experimental animals C: denotes controls, E: denotes changes
per day during the period between the first two series of measurements of
the parameters listed. Normally these represent measurements obtained
immediately after admission (or 1 day later) and again 2 to 4 days later
after treatment has been started.
***Average changes for six animals in each group over the two periods of […]

[14] = test system: anemia / haemoglobin formation; assay: Treatment of anemias; assay type: in vivo, patients; settings: cases where conventional therapy is ineffective, pyridoxine refractory anaemias
albumin = settings: plasma; cited from earlier work
[15] = patients destined to die, hyperalimentation and additional PN, even with 200mg/day
[16] = average change for six experimental animals
[17] = change per day, individual animal, 50 mg pyridoxal over 12 h with drip
[18] = change per day, total of experimental group

Cc1ncc(CO)c(CO)c1O [PN, pyridoxine]
rate of increase of intracellular PLP level (fibroblast cell cultures; PN vs PL as extracellular source): increased much more slowly (and in a time dependent manner)
effect of high concentrations on intracellular PLP accumulation (fibroblast cell cultures; high concentrations of PN with PL): suppress intracellular PLP accumulation
conversion of pyridoxine into pyridoxal and its phosphate [1]: incapable of converting PN into PLP or PL
conversion of pyridoxine into pyridoxal and its phosphate ([1]; listed as pyridoxine): incapable of converting pyridoxine into pyridoxal
response rate in pyridoxine-responsive anemias [2]: fewer than half of the cases
dosage necessary for effect in PMS / estrogen side effects ([3]; bolus doses, daily): 200 to 400 mg/day
effect on Tryp. metabolism and associated clinical symptoms ([3]; oral, OC users): repeatedly shown to normalise Tryp. metabolism
slow responders among persons studied [4]: Approximately 20%
side effects at high bolus dosage ([5]; high dosage levels (e.g. 200-400 mg daily)): produces side effects
plasma half-life [6]: about 12 minutes
lipid lowering effect (lipid metabolism): only a weak lipid-lowering and regulating agent
increment in plasma PLP, generally [7, 15]: less than 10 nM
increment in plasma PLP, occasionally [7, 15]: less than 1 nM

Cc1ncc(CO)c(CN)c1O [PM, pyridoxamine]
response compared with PN (PN-oxidase deficiency): respond much more satisfactorily

NCCCCNCCCN [spermidine]
inhibition of PLP-specific phosphatases [8]: inhibited

Cc1ncc(CO)c(C=O)c1O [PL, pyridoxal]
response compared with PN (PN-oxidase deficiency): respond much more satisfactorily
intracellular PLP level (fibroblast cell cultures; extracellular PL concentration 60 nM): 12 nmol/g cell protein
intracellular PLP level, maximum value (fibroblast cell cultures; extracellular PL concentration 600 nM): 120 nmol/g cell protein
cellular uptake (fibroblast cell cultures; further increase of extracellular concentration): saturable process
effect of extracellular vitamer on intracellular PLP level (fibroblast cell cultures; relative effectiveness of PL and PN): more effective than PN
adverse effects [9]: No adverse effects
difference in survival rate ([10]; PL-supplemented vs control, 12 h): statistically significant difference in survival rate
survival time ([10]; individual rat, 0.3 ml i/v 1 h before and 0.5 ml i/p after challenge, 12h = survived full period): 1 h and 3 h (3×) and 12 h (2×)
mean corpuscular hemoglobin (Babesia canis [11]; day 5, experimental animals): statistically significantly increased
mean corpuscular volume (Babesia canis [11]; day 5, experimental animals): statistically significantly increased
clinical improvement (Babesia canis [11]; experimental group): definite clinical improvement
deaths (Babesia canis [11]; experimental group, 50 mg/l in infusions, two died in control group): none
reticulocyte count response (Babesia canis [11]; experimental vs control): responded quicker
normablast count profile (Babesia canis [11]; first 3 days, continuous downward trend in controls): inverse trend
alkaline phosphatase values (Babesia canis [11]; serum, day 1 to day 3, decreased in controls): large increase
in vitro stability [12]: far less stable
Hb change, average (Babesia canis [13]; [16]): 11.7 g/L
MCHC change, average (Babesia canis [13]; [16]): -0.03 g/dlRC
MCV change, average (Babesia canis [13]; [16]): 0.17 fL
RCC change, average (Babesia canis [13]; [16]): 4.4e+11 L⁻¹
WCC change, average (Babesia canis [13]; [16]): 4.52e+09 L⁻¹
Hb (haemoglobin) change (Babesia canis [13]; [17]): 11.0 g/L and 12.8 g/L and 6.5 g/L and 9.5 g/L and 7.8 g/L and 24.8 g/L
MCHC (mean corpuscular haemoglobin content) change (Babesia canis [13]; [17]): 3.8 g/dlRC and -1 g/dlRC and -2.5 g/dlRC and -1.7 g/dlRC and -0.5 g/dlRC and 2.5 g/dlRC
MCV (mean corpuscular volume) change (Babesia canis [13]; [17]): -6 fL and 2 fL and 0 fL and 3 fL and 1 fL
RCC (red cell count) change (Babesia canis [13]; [17]): 4.1e+11 L⁻¹ and 4.9e+11 L⁻¹ and 4.7e+11 L⁻¹ and 2.3e+11 L⁻¹ and 6.4e+11 L⁻¹
WCC (white cell count) change (Babesia canis [13]; [17]): 3e+09 L⁻¹ and -8.4e+09 L⁻¹ and 2.5e+09 L⁻¹ and 3.1e+09 L⁻¹ and 1.05e+09 L⁻¹ and 1.79e+10 L⁻¹
Hb change, total (Babesia canis [13]; [18]): 70 g/L
MCHC change, total (Babesia canis [13]; [18]): -8.2 g/dlRC
MCV change, total (Babesia canis [13]; [18]): 1 fL
RCC change, total (Babesia canis [13]; [18]): 2.65e+12 L⁻¹
WCC change, total (Babesia canis [13]; [18]): 2.715e+10 L⁻¹
recovery of haemoglobin levels (Babesia canis [13]; experimental animals): amazing recovery of haemoglobin levels
haematological differences to control group (haemoglobin, RCC, WCC) (Babesia canis [13]; experimental vs control): Large, significant differences
effectiveness / effective dosage rate against side effects of estrogen ([5]; supplementation, particularly over prolonged periods, compared with pyridoxine): effective at dosage rates as low as a few mg/day; also recorded: far more effective
lipid lowering effect (lipid metabolism): unexpectedly strong lipid lowering effects
stimulation of haemoglobin formation [14]: capable of stimulating the formation of haemoglobulin
effectiveness to counteract B6 depletion ([7]; compared with PN, also patients who do not respond to PN): substantially more effective than PN

Cc1ncc(COP(=O)(O)O)c(C=O)c1O [PLP, pyridoxal phosphate]
accumulation of extracellular PLP by the cells (fibroblast cell cultures): not accumulated by the cells
radioactivity in the intracellular fraction (fibroblast cell cultures; incubation with radioactive PLP): very little radioactivity
protein (albumin) binding compared with PL (albumin): substantially more prone to becoming protein (albumin) bound than PL

NCCCNCCCCNCCCN [spermine]
inhibition of PLP-specific phosphatases [8]: inhibited
